This note sets out measurements from ChEMBL document CHEMBL4706545, “Antiproliferative effect of mitochondria-targeting allobetulin 1,2,3-triazolium salt derivatives and their mechanism of inducing apoptosis of cancer cells” (Eur J Med Chem, 2020).

Some results are limits rather than exact numbers.

One assay relates to HepG2. As to the kind of experiment: Cytotoxicity against human HepG2 cells assessed as reduction in cell viability incubated for 48 hrs by MTT assay. Type of assay: functional, cell-based. To be noted: HepG2, 48 h. (Tetrazolium assays rely on reduction of a dye to a coloured formazan, in cell work by metabolically active cells.)
The subject of another assay is SGC-7901. As to the kind of experiment: Cytotoxicity against human SGC-7901 cells assessed as reduction in cell viability incubated for 48 hrs by MTT assay. Type of assay: functional, cell-based. To be noted: SGC-7901, 48 h.
Another assay relates to L02. The assay can be described thus: Cytotoxicity against human HL7702 cells assessed as reduction in cell viability incubated for 48 hrs by MTT assay. It counts as ADME, cell-based. To be noted: L02, 48 h.
The subject of another assay is ECa-109 cell line. The assay can be described thus: Cytotoxicity against human ECa-109 cells assessed as reduction in cell viability incubated for 48 hrs by MTT assay. It counts as functional, cell-based. To be noted: ECa-109, 48 h.
A further assay concerns HeLa. The assay can be described thus: Cytotoxicity against human HeLa cells assessed as reduction in cell viability incubated for 48 hrs by MTT assay. Type of assay: functional, cell-based.
The nature of assay [1]: Selectivity index, ratio of IC50 for cytotoxicity against human HL7702 cells to IC50 for cytotoxicity against human SGC-7901 cells.
Assay [2] can be described thus: Selectivity index, ratio of IC50 for cytotoxicity against human HL7702 cells to IC50 for cytotoxicity against human ECa-109 cells.

On to `CC1(C)CC[C@]23CC[C@]4(C)[C@H](CC[C@@H]5[C@@]6(C)CC[C@H](O)C(C)(C)[C@@H]6CC[C@]54C)[C@H]2[C@H]1OC3` [ALLOBETULIN], for which the IC50 worked out at 55.9 µM in the assay with HepG2; 62.4 µM in the assay on SGC-7901; 42.7 µM in the assay with L02; 47.6 µM in the assay with ECa-109 cell line; 45.6 µM in the assay on HeLa.

For `COc1cccc(Cn2nnc3c2C(C)(C)[C@@H]2CC[C@]4(C)[C@H](CC[C@@H]5[C@H]6[C@H]7OC[C@@]6(CCC7(C)C)CC[C@]54C)[C@@]2(C)C3)c1`, the IC50 in the assay on HepG2 stood at 12.7 µM; with SGC-7901, 12 µM; in the assay with L02 it was 10.5 µM; with ECa-109 cell line it was 10.4 µM; in the assay with HeLa it was 11.2 µM.

Take `CCCCn1nnc2c1C(C)(C)[C@@H]1CC[C@]3(C)[C@H](CC[C@@H]4[C@H]5[C@H]6OC[C@@]5(CCC6(C)C)CC[C@]43C)[C@@]1(C)C2`: the IC50 in the assay on HepG2 was found to be 10.7 µM; in the assay on SGC-7901, 6.61 µM; in the assay with L02 it was 7.86 µM; in the assay on ECa-109 cell line it was 10.5 µM; in the assay with HeLa, 6.26 µM.

Consider `COc1ccc(Cn2nnc3c2C(C)(C)[C@@H]2CC[C@]4(C)[C@H](CC[C@@H]5[C@H]6[C@H]7OC[C@@]6(CCC7(C)C)CC[C@]54C)[C@@]2(C)C3)cc1`, for which the IC50 in the assay with HepG2 came to 13.7 µM; in the assay with SGC-7901 it was 16.9 µM; in the assay with L02, 11.2 µM; in the assay with ECa-109 cell line it was 17.2 µM; with HeLa, 12.7 µM.

As to `COc1cccc2c1C(=O)c1c(O)c3c(c(O)c1C2=O)C[C@@](O)(C(=O)CO)C[C@@H]3O[C@H]1C[C@H](N)[C@H](O)[C@H](C)O1` [DOXORUBICIN], the IC50 was 1.53 µM in the assay with SGC-7901, 0.94 µM in the assay on L02, 2.06 µM in the assay with ECa-109 cell line and 1.07 µM in the assay on HeLa. Besides, the “Ratio IC50” value in assay [1] is 0.61; in assay [2], 0.46.

As to `CC1(C)CC[C@]23CC[C@]4(C)[C@H](CC[C@@H]5[C@@]6(C)Cc7nnn(CCc8c[nH]c9ccccc89)c7C(C)(C)[C@@H]6CC[C@]54C)[C@H]2[C@H]1OC3`, the IC50 in the assay with HepG2 was 14.4 µM; in the assay with SGC-7901 it was 19.8 µM; in the assay with L02 it was 10.3 µM; with ECa-109 cell line, 18.2 µM; with HeLa it was 22.1 µM.

Take `CC1(C)CC[C@]23CC[C@]4(C)[C@H](CC[C@@H]5[C@@]6(C)Cc7nnn(Cc8ccccc8Cl)c7C(C)(C)[C@@H]6CC[C@]54C)[C@H]2[C@H]1OC3`: the IC50 with HepG2 came out at 56.1 µM; in the assay on SGC-7901 it was 49.9 µM; in the assay with L02, 40.5 µM; with ECa-109 cell line, 58.9 µM; in the assay on HeLa it was 41.3 µM.

With `CCCCCCCCn1n[n+](C)c2c1C(C)(C)[C@@H]1CC[C@]3(C)[C@H](CC[C@@H]4[C@H]5[C@H]6OC[C@@]5(CCC6(C)C)CC[C@]43C)[C@@]1(C)C2`, the half-maximal inhibitory concentration (IC50) is 2.01 µM with HepG2; 2.18 µM in the assay with SGC-7901; 1.34 µM with L02; 3 µM with ECa-109 cell line; 2.55 µM in the assay on HeLa.

For the compound `C[n+]1nn(Cc2cccc(Cl)c2)c2c1C[C@]1(C)[C@H]3CC[C@@H]4[C@H]5[C@H]6OC[C@@]5(CCC6(C)C)CC[C@@]4(C)[C@]3(C)CC[C@H]1C2(C)C`, the IC50 was 2.67 µM with HepG2; 2.41 µM with SGC-7901; 1.89 µM with L02; 3.01 µM in the assay with ECa-109 cell line; 2.07 µM in the assay with HeLa.

As for `CC1(C)CC[C@]23CC[C@]4(C)[C@H](CC[C@@H]5[C@@]6(C)Cc7nnn(Cc8ccc(Cl)cc8)c7C(C)(C)[C@@H]6CC[C@]54C)[C@H]2[C@H]1OC3`, the IC50 was determined as 66 µM with HepG2; 61.4 µM with SGC-7901; 44.9 µM in the assay with L02; 64.2 µM in the assay with ECa-109 cell line; 51.3 µM with HeLa.

Turning to `C[n+]1nn(Cc2ccc(Cl)cc2)c2c1C[C@]1(C)[C@H]3CC[C@@H]4[C@H]5[C@H]6OC[C@@]5(CCC6(C)C)CC[C@@]4(C)[C@]3(C)CC[C@H]1C2(C)C`, the concentration for half-maximal inhibition (IC50) in the assay with HepG2 was 1.73 µM; in the assay on SGC-7901, 2.68 µM; in the assay on L02 it was 1.62 µM; in the assay on ECa-109 cell line, 2.16 µM; in the assay with HeLa, 2.45 µM.

In the case of `C[n+]1nn(Cc2ccccc2F)c2c1C[C@]1(C)[C@H]3CC[C@@H]4[C@H]5[C@H]6OC[C@@]5(CCC6(C)C)CC[C@@]4(C)[C@]3(C)CC[C@H]1C2(C)C`, the IC50 stood at 2.99 µM in the assay with HepG2; 2.56 µM with SGC-7901; 1.68 µM in the assay with L02; 3.08 µM in the assay on ECa-109 cell line; 2.42 µM with HeLa.

In the case of `CCCCCCn1n[n+](C)c2c1C(C)(C)[C@@H]1CC[C@]3(C)[C@H](CC[C@@H]4[C@H]5[C@H]6OC[C@@]5(CCC6(C)C)CC[C@]43C)[C@@]1(C)C2`, the IC50 in the assay on HepG2 was determined as 1.93 µM; in the assay with SGC-7901, 1.65 µM; in the assay with L02, 1.33 µM; in the assay with ECa-109 cell line, 3.08 µM; in the assay with HeLa, 2.45 µM.

For the compound `CC1(C)CC[C@]23CC[C@]4(C)[C@H](CC[C@@H]5[C@@]6(C)Cc7nnn(Cc8ccc(F)cc8F)c7C(C)(C)[C@@H]6CC[C@]54C)[C@H]2[C@H]1OC3`, the IC50 with HepG2 was determined as 6.56 µM; in the assay on SGC-7901 it was 9.02 µM; in the assay with L02, 7.47 µM; in the assay on ECa-109 cell line it was 10.9 µM; in the assay with HeLa, 10.2 µM.

Turning to `C[n+]1nn(CC(c2ccccc2)c2ccccc2)c2c1C[C@]1(C)[C@H]3CC[C@@H]4[C@H]5[C@H]6OC[C@@]5(CCC6(C)C)CC[C@@]4(C)[C@]3(C)CC[C@H]1C2(C)C`, the IC50 in the assay on HepG2 was 2.96 µM; in the assay on SGC-7901 it was 2.18 µM; with L02 it was 1.61 µM; in the assay on ECa-109 cell line, 2.28 µM; with HeLa it was 2.67 µM.

For the compound `C[n+]1nn(Cc2ccc(F)cc2)c2c1C[C@]1(C)[C@H]3CC[C@@H]4[C@H]5[C@H]6OC[C@@]5(CCC6(C)C)CC[C@@]4(C)[C@]3(C)CC[C@H]1C2(C)C`, the IC50 is 2.89 µM with HepG2; 3.02 µM in the assay on SGC-7901; 2.2 µM in the assay on L02; 3.06 µM in the assay on ECa-109 cell line; 3.03 µM in the assay on HeLa.

On to `COC(Cn1nnc2c1C(C)(C)[C@@H]1CC[C@]3(C)[C@H](CC[C@@H]4[C@H]5[C@H]6OC[C@@]5(CCC6(C)C)CC[C@]43C)[C@@]1(C)C2)OC`, for which the IC50 in the assay on HepG2, in the assay on SGC-7901, in the assay with L02, in the assay on ECa-109 cell line and in the assay with HeLa was more than 80 µM in each case.

In the case of `CC1(C)CC[C@]23CC[C@]4(C)[C@H](CC[C@@H]5[C@@]6(C)Cc7nnn(Cc8ccccn8)c7C(C)(C)[C@@H]6CC[C@]54C)[C@H]2[C@H]1OC3`, the IC50 with HepG2, in the assay with SGC-7901, in the assay on L02, in the assay with ECa-109 cell line and in the assay on HeLa was more than 80 µM throughout.

As to `COc1ccc(Cn2n[n+](C)c3c2C(C)(C)[C@@H]2CC[C@]4(C)[C@H](CC[C@@H]5[C@H]6[C@H]7OC[C@@]6(CCC7(C)C)CC[C@]54C)[C@@]2(C)C3)cc1`, the IC50 worked out at 2.86 µM with HepG2; 2.01 µM in the assay on SGC-7901; 2.24 µM with L02; 2.78 µM in the assay with ECa-109 cell line; 2.48 µM in the assay with HeLa.

As for `CC1(C)CC[C@]23CC[C@]4(C)[C@H](CC[C@@H]5[C@@]6(C)Cc7nnn(Cc8ccc(C(F)(F)F)cc8)c7C(C)(C)[C@@H]6CC[C@]54C)[C@H]2[C@H]1OC3`, the IC50 came out at 28.9 µM with HepG2; 32.2 µM with SGC-7901; 25.6 µM with L02; 33.9 µM in the assay with ECa-109 cell line; 28.5 µM in the assay on HeLa.

In the case of `COc1cccc(Cn2n[n+](C)c3c2C(C)(C)[C@@H]2CC[C@]4(C)[C@H](CC[C@@H]5[C@H]6[C@H]7OC[C@@]6(CCC7(C)C)CC[C@]54C)[C@@]2(C)C3)c1`, the IC50 with HepG2 stood at 2.18 µM; in the assay on SGC-7901 it was 1.81 µM; with L02, 1.72 µM; in the assay on ECa-109 cell line it was 2.81 µM; in the assay on HeLa, 2.33 µM.

For the compound `CC1(C)CC[C@]23CC[C@]4(C)[C@H](CC[C@@H]5[C@@]6(C)Cc7nnn(Cc8ccc(F)cc8)c7C(C)(C)[C@@H]6CC[C@]54C)[C@H]2[C@H]1OC3`, the IC50 in the assay with HepG2 is 47.7 µM; in the assay on SGC-7901 it was more than 80 µM; in the assay on L02, 42 µM; in the assay on ECa-109 cell line, 69 µM; in the assay on HeLa, more than 80 µM.

With `CC1(C)CC[C@]23CC[C@]4(C)[C@H](CC[C@@H]5[C@@]6(C)Cc7nnn(Cc8c(F)cccc8Cl)c7C(C)(C)[C@@H]6CC[C@]54C)[C@H]2[C@H]1OC3`, the IC50 in the assay with HepG2 came to 24.3 µM; with SGC-7901 it was 26.1 µM; in the assay on L02 it was 19.5 µM; in the assay with ECa-109 cell line, 27 µM; with HeLa it was 23.3 µM.

What is called IC50 is the concentration at which inhibition is half-maximal.
